ChEMBL document CHEMBL2073948, “Interactions of the human multidrug resistance proteins MRP1 and MRP2 with organic anions” (Mol Pharmacol, 2000)
Blank lines part the entries; values can stand above or below the compound they belong to.

How the values were obtained:
Format in all cases: functional, cell membranes, Membrane vesicle
[1] = molecular target: T1, ATP-binding cassette sub-family C member 2 (Homo sapiens, UniProt Q92887); experiment: TP_TRANSPORTER: uptake in membrane vesicles from MRP2-expressing Sf9 cells
[2] = molecular target: T2, Multidrug resistance-associated protein 1 (Homo sapiens, UniProt P33527); experiment: TP_TRANSPORTER: uptake in membrane vesicles from MRP1-expressing Sf9 cells
[3] = molecular target: T1, ATP-binding cassette sub-family C member 2; experiment: TP_TRANSPORTER: inhibition of NEM-GS uptake (NEM-GS: 4 uM, Furosemide: 5000 uM) in membrane vesicles from MRP2-expressing Sf9 cells; conditions: sf9, 5000 µM
[4] = molecular target: T1, ATP-binding cassette sub-family C member 2; experiment: TP_TRANSPORTER: inhibition of NEM-GS uptake (NEM-GS: 4 uM, Probenecid: <1000 uM) in membrane vesicles from MRP2-expressing Sf9 cells
[5] = molecular target: T2, Multidrug resistance-associated protein 1; experiment: TP_TRANSPORTER: inhibition of NEM-GS uptake (NEM-GS: 4 uM, Probenecid: <1000 uM) in membrane vesicles from MRP1-expressing Sf9 cells

T1 sequence (Q92887 whole entry): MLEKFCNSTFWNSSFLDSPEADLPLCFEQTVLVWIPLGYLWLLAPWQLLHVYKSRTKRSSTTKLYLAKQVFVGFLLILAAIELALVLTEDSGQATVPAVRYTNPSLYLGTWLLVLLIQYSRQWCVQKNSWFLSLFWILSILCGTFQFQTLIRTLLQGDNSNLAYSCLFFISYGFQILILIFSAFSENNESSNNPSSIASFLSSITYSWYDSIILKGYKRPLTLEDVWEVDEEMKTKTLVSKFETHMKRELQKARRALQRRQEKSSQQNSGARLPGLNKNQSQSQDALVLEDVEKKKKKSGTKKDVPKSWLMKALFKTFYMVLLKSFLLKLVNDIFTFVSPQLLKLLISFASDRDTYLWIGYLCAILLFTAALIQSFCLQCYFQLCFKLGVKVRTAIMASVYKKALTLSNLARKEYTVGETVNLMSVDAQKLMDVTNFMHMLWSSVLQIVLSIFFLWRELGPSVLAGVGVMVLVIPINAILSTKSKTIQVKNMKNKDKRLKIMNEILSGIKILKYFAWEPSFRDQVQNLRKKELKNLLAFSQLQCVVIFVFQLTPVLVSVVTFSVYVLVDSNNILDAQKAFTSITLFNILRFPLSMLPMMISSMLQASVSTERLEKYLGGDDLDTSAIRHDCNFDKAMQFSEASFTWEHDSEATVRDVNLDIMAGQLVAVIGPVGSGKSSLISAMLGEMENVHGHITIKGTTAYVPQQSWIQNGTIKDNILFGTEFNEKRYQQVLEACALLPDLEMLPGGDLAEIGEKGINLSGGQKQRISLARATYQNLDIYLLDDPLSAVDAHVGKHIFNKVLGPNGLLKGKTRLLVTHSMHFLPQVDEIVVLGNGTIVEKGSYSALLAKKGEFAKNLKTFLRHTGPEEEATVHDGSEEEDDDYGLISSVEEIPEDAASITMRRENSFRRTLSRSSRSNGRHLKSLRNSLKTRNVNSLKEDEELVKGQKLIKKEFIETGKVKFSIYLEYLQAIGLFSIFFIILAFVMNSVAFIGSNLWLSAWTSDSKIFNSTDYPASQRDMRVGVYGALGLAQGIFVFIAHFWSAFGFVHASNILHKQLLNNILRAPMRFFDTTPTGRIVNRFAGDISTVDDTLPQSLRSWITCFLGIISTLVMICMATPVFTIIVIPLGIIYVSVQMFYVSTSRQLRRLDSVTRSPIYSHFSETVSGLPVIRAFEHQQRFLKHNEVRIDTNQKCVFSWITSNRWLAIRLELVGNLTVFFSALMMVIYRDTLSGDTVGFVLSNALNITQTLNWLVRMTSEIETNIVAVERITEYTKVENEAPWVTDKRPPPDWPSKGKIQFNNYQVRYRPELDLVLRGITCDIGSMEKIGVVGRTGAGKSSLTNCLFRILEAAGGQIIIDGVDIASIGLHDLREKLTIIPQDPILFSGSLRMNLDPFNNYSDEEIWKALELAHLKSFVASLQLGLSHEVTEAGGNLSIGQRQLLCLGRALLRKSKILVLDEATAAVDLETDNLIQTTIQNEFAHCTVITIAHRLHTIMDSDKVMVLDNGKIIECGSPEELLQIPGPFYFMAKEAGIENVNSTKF
T2 sequence (P33527 whole entry): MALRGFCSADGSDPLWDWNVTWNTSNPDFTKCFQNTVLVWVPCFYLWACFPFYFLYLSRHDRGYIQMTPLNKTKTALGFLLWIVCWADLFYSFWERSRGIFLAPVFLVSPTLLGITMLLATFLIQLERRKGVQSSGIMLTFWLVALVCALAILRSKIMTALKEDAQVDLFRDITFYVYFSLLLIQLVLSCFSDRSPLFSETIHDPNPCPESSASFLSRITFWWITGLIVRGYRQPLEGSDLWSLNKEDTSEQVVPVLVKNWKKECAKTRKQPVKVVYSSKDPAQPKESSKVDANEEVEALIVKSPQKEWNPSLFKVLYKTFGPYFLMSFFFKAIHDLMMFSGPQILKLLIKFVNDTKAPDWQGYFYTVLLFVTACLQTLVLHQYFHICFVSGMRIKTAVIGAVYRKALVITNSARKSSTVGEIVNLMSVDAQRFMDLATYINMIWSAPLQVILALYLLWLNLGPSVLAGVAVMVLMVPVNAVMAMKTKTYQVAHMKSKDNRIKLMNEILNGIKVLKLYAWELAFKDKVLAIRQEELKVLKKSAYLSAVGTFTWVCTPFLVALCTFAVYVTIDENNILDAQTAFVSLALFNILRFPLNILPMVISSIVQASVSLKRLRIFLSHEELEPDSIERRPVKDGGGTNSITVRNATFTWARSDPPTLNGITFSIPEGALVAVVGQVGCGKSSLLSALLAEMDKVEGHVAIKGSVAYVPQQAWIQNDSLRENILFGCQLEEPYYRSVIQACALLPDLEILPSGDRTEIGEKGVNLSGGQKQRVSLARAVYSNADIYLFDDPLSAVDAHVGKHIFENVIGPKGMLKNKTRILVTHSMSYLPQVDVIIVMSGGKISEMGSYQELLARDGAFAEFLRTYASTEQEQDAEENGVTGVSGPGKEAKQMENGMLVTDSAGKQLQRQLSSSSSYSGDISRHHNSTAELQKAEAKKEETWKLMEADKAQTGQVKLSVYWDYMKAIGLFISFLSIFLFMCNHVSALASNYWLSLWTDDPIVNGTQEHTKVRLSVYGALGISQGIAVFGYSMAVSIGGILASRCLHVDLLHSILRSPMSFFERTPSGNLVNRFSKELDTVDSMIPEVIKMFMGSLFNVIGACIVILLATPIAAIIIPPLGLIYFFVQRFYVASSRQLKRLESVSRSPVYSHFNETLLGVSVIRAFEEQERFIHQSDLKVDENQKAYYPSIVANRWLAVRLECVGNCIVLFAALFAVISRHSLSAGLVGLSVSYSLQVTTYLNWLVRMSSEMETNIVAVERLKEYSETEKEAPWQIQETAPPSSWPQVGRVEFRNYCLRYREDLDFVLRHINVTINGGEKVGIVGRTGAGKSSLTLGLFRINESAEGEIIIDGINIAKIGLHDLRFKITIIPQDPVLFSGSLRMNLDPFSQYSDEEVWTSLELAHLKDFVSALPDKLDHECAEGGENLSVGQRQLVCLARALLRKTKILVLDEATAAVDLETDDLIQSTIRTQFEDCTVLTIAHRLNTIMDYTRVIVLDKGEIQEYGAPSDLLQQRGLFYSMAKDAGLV

K1/2 [1]: 2500 µM
K1/2 [2]: 200 µM
SMILES: NC(CCC(=O)NC(CNCC(=O)O)CSCCN1C(=O)C=CC1=O)C(=O)O (stereo not given)

Activity [3]: inhibitor [+]
SMILES: NS(=O)(=O)c1cc(C(=O)O)c(NCc2ccco2)cc1Cl [FUROSEMIDE]

Activity [4]: inhibitor [+]
Activity [5]: inhibitor [+]
SMILES: CCCN(CCC)S(=O)(=O)c1ccc(C(=O)O)cc1 [PROBENECID]
